# Data from a melting point compilation (Tetko et al.; mined from patent text by program, amines drawn as free bases though some values may be those of a salt).
row,melting point [°C],SMILES
1,106 to 107,CC(C)(C(=O)O)c1cc(C(F)(F)F)cc(C(F)(F)F)c1
2,235 to 237,CSc1cnc2cc(Cl)sc2c1O
3,217 to 219,O=C(O)c1cc(-c2ncnc(C(F)F)c2Cl)c(F)cc1Cl
4,138 to 139,CCOC(=O)C1CS(=O)(=O)c2c(C(=O)c3ccccc3)cc(Cl)cc21 (configuration not stated)
5,205 to 206,NNc1nnc(C=Cc2ccc([N+](=O)[O-])o2)s1
6,151 to 152,CCOC(=O)C(Cc1cnc2ccc(OC)cc2c1)(NC(C)=O)C(=O)OCC
7,164 to 165,CC(C)(C)n1c(=O)n(-c2ccnc(NC(=O)NCc3ccccn3)c2)c2ccccc21
8,42 to 45,C#CC(C)(C)CCOc1ccc(Cl)cc1
9,59 to 61,C[Si](C)(C)CCOc1ccc(N)cn1
10,241,O=C(O)c1cn(C2CC2)c2c(F)c(N3CCC(n4cc(-c5ccccc5)nn4)C3)c(F)cc2c1=O (configuration not stated)
11,157 to 159,O=C(Nc1nc(C(F)(F)F)c(I)s1)c1c(Cl)cccc1Cl
12,178 to 179,Cc1nc2ccccc2c2c([N+](=O)[O-])cnn12
13,251 to 252,O=C(O)CCC(=O)Nc1ccc(-c2ccncc2)cc1
14,158 to 160,CC(C)Oc1c(C(N)=O)oc2ccc(OCc3ccccc3)cc12
15,64.1 to 65.4,CCCCCS(=O)(=O)NC(=O)CCc1ccc(OCCOC)cc1OC1CCCCC1
16,173 to 174,Cc1cc(-c2cccc([N+](=O)[O-])c2)nnc1N(C)N
17,146,CCOC(=O)C(C)c1ccc2nc(N)sc2c1 (configuration not stated)
18,138,Cc1ccc(S(=O)(=O)OC[C@H]2COc3ccc([N+](=O)[O-])cc3O2)cc1
19,195 to 196,COC(=O)c1ccc(C(=O)Nc2ccc(-n3nc(C(F)(F)F)cc3C(F)(F)F)cc2)cc1
20,100 to 103,COc1ccc(-c2nc(-c3ccccn3)cs2)cc1
21,229 to 230,CC1(C)CCC(C)(C)c2cc3cc(-c4ccc(C(=O)O)o4)ccc3cc21
22,244 to 246,N#CC(C#N)=C1c2ccsc2-c2c1cc([N+](=O)[O-])cc2[N+](=O)[O-]
23,192 to 194,Cc1ccc2c(n1)Nc1ccccc1N(C)C2=O
24,216 to 218,COc1ccc2c(c1)-c1c(C#N)c(N3CCCCC3)c3c(c1C2)-c1ccccc1C3
25,123 to 125,Cc1ccc(C(=O)C=CN(C)C)o1
26,200 to 213,O=C(Nc1cc(F)cc2c(Cl)ccnc12)c1c(Cl)cccc1Cl

row,melting point [°C],SMILES
1,150 to 154,O=S(=O)(c1ccc(O)cc1)c1ccc(F)cc1
2,80 to 83,COc1ccc(C2(CCN3CCC(C(=O)c4nc5ccccc5n4Cc4ccc(F)cc4)CC3)CCN(C(=O)c3cc(OC)c(OC)c(OC)c3)C2)cc1OC (configuration not stated)
3,342,O=C1Nc2cc(Cl)ccc2C(=O)C1c1cc2ccccc2o1 (configuration not stated)
4,98 to 100,CCN(C(C)=O)c1cc([N+](=O)[O-])cc([N+](=O)[O-])c1
5,158 to 162,O=S(=O)(c1ccccc1)n1c2ccc(CCc3ccccc3)cc2c2cc(Cl)cnc21
6,208 to 211,Cc1nc(O)c(-c2ccccc2)s1
7,> 250,NCC1Cc2cc(-c3ccc(F)cc3)cc(F)c2O1 (configuration not stated)
8,102 to 104,CCO/N=C(/C(=O)OCC)c1ccc(OCCOc2ccc3ccccc3c2)s1
9,238 to 239,COc1cc(Cc2cnc(N)nc2N)cc2c1OC(C)(C)C=C2Br
10,154 to 155,CC(C)(C)c1cc(Cl)ccc1N1CCN(C(=O)C(=O)O)CC1
11,217,Clc1cccnc1-c1ccc2[nH]nc(Nc3ncc(CN4CCOCC4)s3)c2c1
12,129,CCOC(=O)/C=C(C)/C=C/C=C(\C)C1=Cc2cc(C(C)(C)C)ccc2OC1
13,88 to 89,Cc1cc(O)c(C)c2c1C(C)CC(C)(C)O2 (configuration not stated)
14,221,Nc1cc2c(Nc3ccc(F)c(Cl)c3)ncnc2cc1OCC1CCOCC1
15,198 to 200,Nc1ncc(-c2cnc3ccc(-c4ccc(OCC5(N)COC5)cc4)nn23)cc1C(F)(F)F
16,91 to 94,O=C(O)c1ccc(OCCNC(=O)C2Cc3ccccc3N2S(=O)(=O)c2ccc(-c3ccc(F)cc3F)cc2)cc1F (configuration not stated)
17,173 to 175,Cc1onc(C(=O)c2ccc(Cl)cc2)c1[N+](=O)[O-]
18,59 to 60,CCOC(=O)c1ccc(C#CCc2ccc3c(c2)C(C)(C)CCC3(C)C)cc1
19,241 to 243,O=c1[nH]c2ccccc2c(=O)n1Cc1cccnc1
20,137 to 138,CCCCOc1c(CNC(=O)OC(C)(C)C)n(CC(C)C)c(=O)c2ccc(NC(=O)OCC3c4ccccc4-c4ccccc43)cc12
21,229 to 230,CCCCOC1c2ccccc2C(=O)N(CC2CC2)C1(/C=C/C(=O)O)CNC(=O)OC(C)(C)C (configuration not stated)
22,183 to 184,COc1ccc(C(=O)O)c(N)c1OC
23,95.9 to 99.9,Cc1cc(C)c(N2CCCc3c2[nH]n(C)c3=O)c(Cl)c1
24,80,COc1ccc2[nH]cc(CCC(=O)O)c2c1
25,257 to 259,COc1ccc(C(=O)c2c[nH]c(=O)[nH]2)cc1OC
26,90 to 93,CCCCn1c(=O)c2nn(S(=O)(=O)Cc3ccccc3)cc2n(CCCC)c1=O

# Further lines, the compound ahead of its results:
row,SMILES,melting point [°C]
1,Cc1cc(C(C)(C)C)c(O)c2c1C1CCCCC1C2=O (configuration not stated),77 to 78
2,COc1cc(Cc2cnc(N[N+](=O)[O-])[nH]c2=O)ccn1,194 to 196
3,COc1cc(/C(C#N)=C/c2ccc(C)c([N+](=O)[O-])c2)cc(OC)c1OC,162 to 163
4,CN1CN(C(=O)c2c(F)cccc2F)C(=O)N(c2ccc(S(=O)C(F)F)cc2F)C1 (configuration not stated),50 to 55
5,CC(C)(C)OC(=O)N1CCC(COc2ccc(C=O)cc2)CC1,116 to 117
6,COCOc1ccc(-n2nc(C(F)(F)F)cc2-c2ccc(S(C)(=O)=O)cc2)cc1,96 to 97
7,Cc1ccc(-c2c3ccccc3nn2Cc2ccccc2)cc1,111
8,O=C(O)CC(CCCc1ccc(O)cc1)CC(=O)O,107 to 108
9,Cc1cc(O)cc(C)c1[N+](=O)[O-],106 to 108
10,CCOC(=O)c1cc2c(OC[C@@H](O)CN3CCC(c4ccc5ccccc5c4)CC3)cccc2[nH]1,115 to 117
11,CC(=O)NCC1CN(c2ccc(-c3cccc(CN(CC(N)=O)CC(N)=O)c3)c(F)c2)C(=O)O1 (configuration not stated),213
12,Nc1ccccc1OCc1ccc2ccccc2n1,62 to 64
13,Cc1ccc(-c2cccc(C(N)=O)c2)cc1,200 to 205
14,O=c1n(CCCC2CCCC2)ccn1-c1ccc([N+](=O)[O-])cc1,105 to 107
15,COc1ccc(S(N)(=O)=O)cc1C(=O)NCC1CCCN1C1CC1 (configuration not stated),163
16,CC1C(C)(C)c2ccc(C#Cc3ccc(C=O)cc3)cc2C1(C)C (configuration not stated),106 to 107
17,CC(C(=O)O)c1ccc(Oc2ccc(F)cc2)cc1 (configuration not stated),84 to 86
18,N#Cc1ccc(CC23CCNN2C(=O)N(c2cc(Cl)nc(Cl)c2)C3=O)cc1 (configuration not stated),187
19,CN(C)CCN1C(=O)c2cscc2N(C)c2ccccc21,147 to 149
20,N#CCCNC(=O)C1CC(CF)(CF)Oc2ccc([N+](=O)[O-])cc21 (configuration not stated),137 to 138
21,[N-]=[N+]=NCCCn1ccc(-c2ccc(F)cc2)c1-c1ccncc1,219 to 222
22,O=C(O)c1ccc2oc(-c3ccccc3)cc(=O)c2c1,281 to 283
23,NC(=O)c1sc2nccc(NC3CCCCC3)c2c1N,244 to 247
24,O=C(C1NCCc2occc21)N1CCCC1 (configuration not stated),85 to 86
25,NCc1noc(-c2ncn3c2[C@@H]2CCCN2C(=O)c2sccc2-3)n1,156 to 158

row,SMILES,melting point [°C]
1,COCCc1ccc(OCC(O)CNCCNC(=O)C2CCCOC2)cc1 (configuration not stated),107 to 108
2,COc1cccc(CNC(=O)C(C)(C)COc2cccc3nc(C)c(C(=O)O)c(N)c23)c1,172 to 174
3,NCC1Cc2c(F)c(F)cc(-c3ccccc3)c2O1 (configuration not stated),> 240
4,N#CCCNC(=O)c1n[nH]cc1NC(=O)c1cc2ccccc2o1,231 to 233
5,CC(C)(C)OC(=O)NN=C1CCN(C(=O)OC(C)(C)C)CC1,172 to 174
6,NCc1ccc(N2CCN(c3ccc(CCC(=O)O)cc3)C2=O)cc1,> 260
7,CCOC(=O)C(=O)Nc1nnc2c3c(c(N4CCCCC4)nn12)CCCC3,168 to 169
8,Cc1cccc(COCC2OC(n3cc(C(F)(F)F)c(=O)[nH]c3=O)CC2O)c1 (configuration not stated),169 to 171
9,COc1ccc(CCN2CCC(N3Cc4cc(Cl)c(S(N)(=O)=O)cc4C3=O)CC2)cc1,125 to 135
10,Cc1nc(-n2ccn(Cc3ccc(C(F)(F)F)cc3)c2=O)sc1C(=O)NCc1cccnc1,163 to 164
11,CCCCNC(=O)NS(=O)(=O)c1ccc(CCNC(=O)N2CCCCC2=O)cc1,156 to 158
12,CCCC(CCC)(CCC)NC(=O)NC,120
13,C[C@H](Cn1ncnn1)n1nnc2cc3c(=O)n(C4CC4)nnc3cc2c1=O,190 to 192
14,Cc1cc(-n2ccnc2)c2cccc(OCc3c(Cl)ccc(S(=O)(=O)N4CCC[C@H]4C(=O)NCCc4ccncc4)c3Cl)c2n1,120
15,Cc1nnc2n1-c1ccccc1CS2,142 to 144
16,COn1c(C(F)(F)F)nc2ncc(Cl)cc21,91 to 92
17,c1ccc2c(c1)CC(CN1CCN(c3ccc4c(c3)OCC4)CC1)C2,171 to 173
18,O=C(OC1CCCCC1)c1ncn2c1[C@@H]1CCCN1C(=O)c1c(I)cccc1-2,181 to 182
19,Nc1cc2c(cc1Cl)N1CCCN=C1C2=O,> 270
20,N#Cc1sc2cc(NC(=O)OCc3ccccc3)ccc2c1Cl,155 to 166
21,O=c1ccc(-c2ccc(Oc3ccc4c(c3)CCN(C3CCC3)CC4)nc2)n[nH]1,215 to 220
22,CS(=O)(=O)NCCCNC(=O)c1cccc(-c2cccc3oc(Cc4cccc(C(F)(F)F)c4)cc23)c1,79 to 80
23,COc1ccc(-c2cc3c(OC)cc(OC)cc3nc2OC(C)C(=O)N(C)C)cc1 (configuration not stated),54 to 55
24,CN1Cc2c(-c3noc(CN)n3)ncn2-c2ccccc2C1=O,192 to 195
25,COC(=O)c1cc(C(F)(F)F)ccc1N,51 to 52
